The results in this text go back to ChEMBL document CHEMBL1145498, “A systematic interaction map of validated kinase inhibitors with Ser/Thr kinases” (Proc Natl Acad Sci U S A, 2007).

The target in data set [1] is T1, Casein kinase I isoform alpha (Homo sapiens, UniProt P48729). The experiment in a line: Inhibition of CK1a1.
In data set [2] the target is Inhibitor of nuclear factor kappa-B kinase subunit beta (Homo sapiens, UniProt O14920). The experiment in a line: Inhibition of IKK-beta.
The target of data set [3] is Dual specificity mitogen-activated protein kinase kinase 1 (Homo sapiens, UniProt Q02750). Description: Inhibition of MKK1.
The nature of data set [4]: Bioavailability in mouse at 20 mg/kg, ip. The class given is ADME, organism-based. To be noted: in vivo.
Data set [5] addresses Serine/threonine-protein kinase ATR (Homo sapiens, UniProt Q13535). Description: Inhibition of ATR.
The target of data set [6] is T1, Casein kinase I isoform alpha. The experiment in a line: Inhibition of casein kinase 1.
The nature of data set [7]: Inhibition of p60v-src kinase.
Data set [8] concerns HCT-116. Description: Antitumor activity against human HCT116 cells. Type of data set: functional, cell-based.
Data set [9] can be described thus: Inhibition of FLT3 ITD mutant.
Data set [10] can be described thus: Inhibition of serum-induced proliferation in human NHLF cells. Type of data set: functional, cell-based.
Data set [11] concerns the target Membrane-associated tyrosine- and threonine-specific cdc2-inhibitory kinase (Homo sapiens, UniProt Q99640). Description: Inhibition of Myt1.
In data set [12] the test system is Jurkat. Description: Inhibition of serum-induced proliferation in human Jurkat cells. Type of data set: functional, cell-based.
In data set [13] the test system is HUVEC. Description: Inhibition of serum-induced proliferation in HUVEC. The class given is functional, cell-based. The conditions noted are these: Homo sapiens.
For data set [14], the system named is T-cell. The experiment in a line: Effect of gamma irradiation-induced apoptosis in human CD8+ T cells. Type of data set: functional, cell-based. To be noted: light or radiation study.
For data set [15], the target named is T2, Serine/threonine-protein kinase Chk1 (Homo sapiens, UniProt O14757).
T2 sequence (O14757 whole entry): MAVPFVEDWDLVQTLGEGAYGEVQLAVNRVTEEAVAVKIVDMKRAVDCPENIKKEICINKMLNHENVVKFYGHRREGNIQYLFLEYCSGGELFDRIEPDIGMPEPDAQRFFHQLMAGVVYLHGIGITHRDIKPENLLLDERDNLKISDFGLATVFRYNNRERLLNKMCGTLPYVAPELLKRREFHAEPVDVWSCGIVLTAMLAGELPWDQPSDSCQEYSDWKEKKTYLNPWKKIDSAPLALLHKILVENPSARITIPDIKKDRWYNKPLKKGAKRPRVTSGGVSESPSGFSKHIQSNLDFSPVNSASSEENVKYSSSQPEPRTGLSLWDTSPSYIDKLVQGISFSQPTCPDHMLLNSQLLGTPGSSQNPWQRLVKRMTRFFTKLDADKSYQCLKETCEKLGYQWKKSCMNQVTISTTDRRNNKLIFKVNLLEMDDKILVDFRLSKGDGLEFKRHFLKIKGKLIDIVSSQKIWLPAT
Description: Inhibition of Chk1 mediated phosphorylation of cdc25C.

A short description of data set [16]: Inhibition of Cdk/cyclin D1.
For data set [17], the system named is PBMC. Description: Inhibition of LPS-stimulated IL1 release in human PBMC. Type of data set: functional, cell-based.
Data set [18] is described as follows: Inhibition of nerve growth factor-mediated MAP kinase activity in […] cells. The conditions noted are these: PC-12. The class given is cell-based.
Data set [19] deals with Protein kinase C (PKC). Description: Inhibition of rat brain PKC.
Data set [20] concerns the target Tyrosine-protein kinase Lck (Homo sapiens, UniProt P06239). Description: Inhibition of p56lck autophosphorylation.
Data set [21] has as its target Protein kinase C gamma type (Homo sapiens, UniProt P05129). The experiment in a line: Inhibition of PKCgamma.
The target in data set [22] is Cyclin-dependent kinase 7/ cyclin H (Homo sapiens, UniProt P50613). Description: Inhibition of Cdk7/H/MAT1. The class given is protein-complex assay.
The species named for data set [23] is Homo sapiens. The experiment in a line: Reduction of growth in human acute leukemic blasts. Type of data set: functional.
A short description of data set [24]: Inhibition of IGF1.
The target in data set [25] is Platelet-derived growth factor receptor (Homo sapiens, UniProt P09619+P16234). Description: Inhibition of PDGF. The class given is protein-complex assay.
Data set [26] in a line: Inhibition of v-Src mutant.
Data set [27] deals with P19. The experiment in a line: Induction of differentiation in mouse P19 cells at 1000 nM. Type of data set: functional.
Data set [28] addresses Mitogen-activated protein kinase 11 (Homo sapiens, UniProt Q15759). Description: Inhibition of SAPK2b/p38beta.
The nature of data set [29]: Inhibition of diacylglycerol kinase in intact platelets.
The nature of data set [30]: cells. To be noted: Homo sapiens, JeKo-1, 72 h.
Data set [31] can be described thus: cells. To be noted: Homo sapiens, NCEB1, 72 h.

Active and inactive are the calls of the source. No cut-off for these calls is given here.

T1 sequence (P48729 whole entry, canonical isoform): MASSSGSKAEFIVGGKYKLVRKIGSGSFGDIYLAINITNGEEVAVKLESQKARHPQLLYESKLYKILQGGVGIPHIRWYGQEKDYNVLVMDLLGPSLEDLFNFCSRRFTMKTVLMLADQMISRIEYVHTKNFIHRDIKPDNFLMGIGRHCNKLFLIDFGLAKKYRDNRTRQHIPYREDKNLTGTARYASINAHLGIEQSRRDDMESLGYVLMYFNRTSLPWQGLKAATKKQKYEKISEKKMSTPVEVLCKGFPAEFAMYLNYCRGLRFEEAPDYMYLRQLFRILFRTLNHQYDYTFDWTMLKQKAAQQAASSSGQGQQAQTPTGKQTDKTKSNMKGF
Membrane-associated tyrosine- and threonine-specific cdc2-inhibitory kinase, sequence (Q99640 whole entry): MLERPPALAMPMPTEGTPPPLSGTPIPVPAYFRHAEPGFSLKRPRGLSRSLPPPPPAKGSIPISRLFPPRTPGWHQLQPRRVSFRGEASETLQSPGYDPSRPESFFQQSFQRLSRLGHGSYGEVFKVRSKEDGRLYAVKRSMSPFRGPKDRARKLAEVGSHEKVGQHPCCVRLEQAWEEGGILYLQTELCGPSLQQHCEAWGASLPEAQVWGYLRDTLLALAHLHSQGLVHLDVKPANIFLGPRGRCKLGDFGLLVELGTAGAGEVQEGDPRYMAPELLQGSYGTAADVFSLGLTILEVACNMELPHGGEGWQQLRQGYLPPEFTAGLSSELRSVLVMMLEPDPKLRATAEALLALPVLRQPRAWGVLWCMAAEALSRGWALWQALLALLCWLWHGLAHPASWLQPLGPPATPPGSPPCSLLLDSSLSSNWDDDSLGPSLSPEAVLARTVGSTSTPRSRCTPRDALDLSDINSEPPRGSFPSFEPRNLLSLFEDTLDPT
Mitogen-activated protein kinase 11, sequence (Q15759 whole entry): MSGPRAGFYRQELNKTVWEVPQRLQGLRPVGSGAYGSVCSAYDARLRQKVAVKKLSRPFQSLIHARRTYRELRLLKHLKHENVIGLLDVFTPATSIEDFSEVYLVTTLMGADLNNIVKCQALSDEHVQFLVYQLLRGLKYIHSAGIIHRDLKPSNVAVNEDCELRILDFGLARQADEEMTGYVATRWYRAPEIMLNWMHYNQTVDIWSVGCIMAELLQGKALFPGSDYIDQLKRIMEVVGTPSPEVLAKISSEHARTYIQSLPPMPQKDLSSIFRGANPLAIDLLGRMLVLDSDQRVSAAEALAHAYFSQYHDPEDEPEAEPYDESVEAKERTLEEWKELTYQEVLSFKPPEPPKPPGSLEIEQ
Cyclin-dependent kinase 7/ cyclin H, sequence (P51946 whole entry): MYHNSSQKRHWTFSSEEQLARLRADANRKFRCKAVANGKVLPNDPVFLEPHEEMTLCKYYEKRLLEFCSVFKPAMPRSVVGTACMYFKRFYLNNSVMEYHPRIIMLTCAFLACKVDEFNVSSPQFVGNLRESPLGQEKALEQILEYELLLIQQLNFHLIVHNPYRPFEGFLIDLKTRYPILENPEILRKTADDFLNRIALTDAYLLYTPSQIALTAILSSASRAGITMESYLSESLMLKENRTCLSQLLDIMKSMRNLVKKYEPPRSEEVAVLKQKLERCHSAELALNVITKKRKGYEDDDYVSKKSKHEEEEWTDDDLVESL
Cyclin-dependent kinase 7/ cyclin H, sequence (P50613 whole entry): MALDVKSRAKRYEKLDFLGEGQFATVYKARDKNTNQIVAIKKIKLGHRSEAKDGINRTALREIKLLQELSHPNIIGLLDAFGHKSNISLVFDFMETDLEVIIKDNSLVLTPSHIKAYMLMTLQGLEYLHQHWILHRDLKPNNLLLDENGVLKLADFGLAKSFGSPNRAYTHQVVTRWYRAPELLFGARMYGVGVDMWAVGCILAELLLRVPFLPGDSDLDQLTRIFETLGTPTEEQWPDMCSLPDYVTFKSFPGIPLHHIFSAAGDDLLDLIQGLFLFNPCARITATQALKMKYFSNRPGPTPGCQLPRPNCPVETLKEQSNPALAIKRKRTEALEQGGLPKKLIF
Dual specificity mitogen-activated protein kinase kinase 1, sequence (Q02750 whole entry): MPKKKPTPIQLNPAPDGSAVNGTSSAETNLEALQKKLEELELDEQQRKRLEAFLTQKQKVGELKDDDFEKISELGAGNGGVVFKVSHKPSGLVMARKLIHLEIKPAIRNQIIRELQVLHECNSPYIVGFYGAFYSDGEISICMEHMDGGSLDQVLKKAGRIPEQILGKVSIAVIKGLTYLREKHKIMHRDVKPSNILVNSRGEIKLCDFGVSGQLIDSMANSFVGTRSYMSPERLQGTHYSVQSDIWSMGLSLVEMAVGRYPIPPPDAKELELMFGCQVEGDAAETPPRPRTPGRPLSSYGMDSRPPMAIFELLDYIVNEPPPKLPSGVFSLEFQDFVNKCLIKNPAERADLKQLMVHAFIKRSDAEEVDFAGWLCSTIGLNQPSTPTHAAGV
Tyrosine-protein kinase Lck, sequence (P06239 whole entry): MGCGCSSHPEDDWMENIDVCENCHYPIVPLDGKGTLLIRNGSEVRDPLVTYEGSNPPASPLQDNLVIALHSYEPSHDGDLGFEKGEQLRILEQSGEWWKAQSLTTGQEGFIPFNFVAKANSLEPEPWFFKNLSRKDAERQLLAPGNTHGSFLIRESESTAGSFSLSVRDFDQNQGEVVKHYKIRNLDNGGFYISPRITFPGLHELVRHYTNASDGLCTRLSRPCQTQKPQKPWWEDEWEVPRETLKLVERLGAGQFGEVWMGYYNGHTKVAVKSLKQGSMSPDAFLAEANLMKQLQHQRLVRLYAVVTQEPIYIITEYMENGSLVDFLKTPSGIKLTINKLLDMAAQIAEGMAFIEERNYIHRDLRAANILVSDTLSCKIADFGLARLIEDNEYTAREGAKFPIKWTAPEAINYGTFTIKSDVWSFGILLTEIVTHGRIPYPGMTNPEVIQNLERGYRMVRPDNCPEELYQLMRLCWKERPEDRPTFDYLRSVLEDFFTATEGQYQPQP
Inhibitor of nuclear factor kappa-B kinase subunit beta, sequence (O14920 whole entry): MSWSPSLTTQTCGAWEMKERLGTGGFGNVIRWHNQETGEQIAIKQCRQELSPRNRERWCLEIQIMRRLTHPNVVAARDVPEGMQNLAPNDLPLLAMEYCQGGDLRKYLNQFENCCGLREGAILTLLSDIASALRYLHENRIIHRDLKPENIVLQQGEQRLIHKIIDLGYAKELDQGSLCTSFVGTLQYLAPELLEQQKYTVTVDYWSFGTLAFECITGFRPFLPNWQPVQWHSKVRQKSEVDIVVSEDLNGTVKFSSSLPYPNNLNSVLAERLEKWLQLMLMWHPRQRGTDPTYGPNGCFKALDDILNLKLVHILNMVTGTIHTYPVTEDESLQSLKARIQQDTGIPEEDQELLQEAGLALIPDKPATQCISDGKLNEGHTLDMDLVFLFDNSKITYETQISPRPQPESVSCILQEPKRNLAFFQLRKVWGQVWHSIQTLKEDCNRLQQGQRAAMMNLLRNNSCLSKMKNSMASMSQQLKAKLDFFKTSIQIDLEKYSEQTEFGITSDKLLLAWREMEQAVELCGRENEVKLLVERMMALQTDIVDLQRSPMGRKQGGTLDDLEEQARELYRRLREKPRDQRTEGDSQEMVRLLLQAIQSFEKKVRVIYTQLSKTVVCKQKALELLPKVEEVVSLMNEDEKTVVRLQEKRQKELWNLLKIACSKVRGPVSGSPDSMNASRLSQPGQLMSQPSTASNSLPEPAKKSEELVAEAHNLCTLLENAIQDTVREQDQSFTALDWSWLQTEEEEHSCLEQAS

As usually defined, the IC50 is the concentration at which inhibition is half-maximal. A lower IC50 goes with greater potency. In the case of `COc1cc(OC)c(/C=C2\C(=O)Nc3ccccc32)c(OC)c1`, in data set [1], the midpoint of inhibition, the IC50, lay at 11000 nM.
For `COc1cc(O)c2c(c1)oc(=O)c1c3cc(O)c(O)cc3oc21` [WEDELOLACTONE], the IC50 in data set [2] is above 10000 nM.
`COc1cc(C[C@H]2C(=O)OC[C@@H]2Cc2ccc(OC)c(OC)c2)ccc1O` [ARCTIGENIN]: the IC50 in data set [3] is 1 nM.
What is called bioavailability is dose-corrected exposure relative to a reference, in per cent. The compound `O=c1cc(N2CCOCC2)oc2c1ccc1ccccc12` displayed a bioavailability in [4] of 20%. Further, the IC50 in [5] is above 100000 nM.
In general, Ki refers to the dissociation constant of the complex between target and ligand, obtained from inhibition or displacement. `NCCNS(=O)(=O)c1cccc2c(Cl)cccc12` gave a Ki in data set [6] of 80000 nM.
`C[C@@H]1C[C@H]2O[C@@H]2/C=C\C=C\C(=O)Cc2c(Cl)c(O)cc(O)c2C(=O)O1` [RADICICOL] returned a half-maximal inhibitory concentration (IC50) in [7] of 0.27 nM.
For orientation: EC50 means the midpoint of the concentration-response curve. High values mean weaker potency, low ones greater potency. The compound `Cc1cc(C=C2C(=O)C=CC2=O)cc(C)c1O` came in with an EC50 in [8] of 230000 nM.
For the compound `CCOC(=O)c1cnc2oc3ccc(O)cc3c2c1-c1ccccc1`, the result was Active.
For `c1ccc(-c2n[nH]c3c2oc2ccccc23)cc1`, the IC50 in [9] worked out at 300 nM.
For `CN1CCc2[nH]c(=S)c(C#N)c(-c3cccs3)c2C1`, the concentration for half-maximal inhibition (IC50) in data set [10] was below 8000 nM; in data set [11], 1200 nM; in data set [12], below 8000 nM; in data set [13], below 8000 nM.
`NC(=O)c1ccc2[nH]c(-c3ccc(Oc4ccc(Cl)cc4)cc3)nc2c1` returned a concentration giving a half-maximal response (EC50) in data set [14] of 7600 nM.
In turn, `O=C1NC(=O)c2c1c1c3ccccc3n3c1c1c2c2ccccc2n1C1CCC3O1` came in with a half-maximal inhibitory concentration (IC50) in [15] of 15 nM.
For the compound `O=C1c2ccccc2-[n+]2ccc3c([nH]c4ccccc43)c21` [FASCAPLYSIN CHLORIDE], the IC50 in data set [16] stood at 350 nM.
In data set [17], `CSc1nc(-c2ccc(F)cc2)c(-c2ccnc(NC(C)c3ccccc3)c2)[nH]1` (racemic) gave an IC50 of 39 nM.
For the compound `COc1cccc(-c2cc(=O)c3ccccc3o2)c1N`, the IC50 in [18] worked out at 2000 nM.
`Cl.Cn1cc(C2=C(c3ccc4cc5n(c4c3)CCC(CN)C5)C(=O)NC2=O)c2ccccc21` (configuration not stated) showed a concentration for half-maximal inhibition (IC50) in [19] of 15 nM.
In turn, `Cc1c2ccncc2c(C)c2c1[nH]c1ccccc12` [ELLIPTECINE] showed a concentration for half-maximal inhibition (IC50) in data set [20] of 18500 nM.
With `O=C1NC(=O)C(c2cn(CCCn3ccnc3)c3ccccc23)=C1Nc1ccccc1`, the 50% inhibitory concentration (IC50) in data set [21] is above 1000 nM.
In data set [22], `CC(C)c1nn(-c2c(Cl)cccc2Cl)c2nc(Cc3ccc(OCCO)cc3)[nH]c(=O)c12` gave a 50% inhibitory concentration (IC50) of 71 nM.
In the case of `CN(C)C[C@@H]1CCn2cc(c3ccccc32)C2=C(C(=O)NC2=O)c2cn(c3ccccc23)CCO1` [RUBOXISTAURIN], the outcome in [23] was Active.
On to `CCOC(=O)c1c(C)[nH]c(/C=C2\C(=O)Nc3ccccc32)c1C`, for which the IC50 in [24] and in data set [25] was above 100000 nM throughout.
`CC(C)(C)n1nc(-c2cccc3ccccc23)c2c(N)ncnc21` gave an IC50 in data set [26] of 1.5 nM.
Turning to `Nc1cccc(-c2cc3c(Oc4cccc(O)c4)ncnc3[nH]2)c1`, the Activity in data set [27] stood at 30%.
The compound `Cc1ccc(NC(=O)c2cccc(N(C)C)c2)cc1NC(=O)c1ccc(O)cc1` returned a 50% inhibitory concentration (IC50) in data set [28] of 2000 nM.
Compound `O=c1c2ccccc2[nH]c(=S)n1CCN1CCC(=C(c2ccc(F)cc2)c2ccc(F)cc2)CC1` [DIACYLGLYCEROL KINASE INHIBITOR II] came in with an IC50 in data set [29] of 120 nM.
In the case of `CC[C@H](CO)Nc1nc(NCc2ccccc2)c2ncn(C(C)C)c2n1` [SELICICLIB], the IC50 in data set [30] is 25000 nM; in [31], 50000 nM.
